{
  "source": "paper PMC4765731",
  "about": "(Anticancer research, 2015)",
  "key": {"[1]": {"system": "human lung (A549) cancer cell line", "assay": "Cell viability, crystal violet dye binding assay, A549", "format": "cell-based"}, "A549 cells [2]": {"system": "A549 cells", "assay": "Mitochondrial membrane potential", "format": "cell-based, human", "settings": "rhodamine-123"}, "A549 cells [3]": {"system": "A549 cells", "assay": "ROS production, DCFDA dye", "format": "cell-based, human", "settings": "30 min"}, "[4]": {"settings": "Homo sapiens, A549, 48 h, read-out: CC50 (cytotoxic concentration), A549, A549, 48 h exposure, crystal violet, mean ± SD"}, "[5]": {"settings": "read-out: CC50 (cytotoxic concentration), A549, A549, 48 h exposure, crystal violet, mean ± SD"}},
  "note": "Where two headings read alike, the source gives them in different places.",
  "data": [
    {"smiles": "CS(=O)(=O)c1ccc(-c2cc3ccccc3oc2=O)cc1", "note": "[Compound 9, 3-(4-methanesulfonylphenyl)-2H-chromen-2-one]", "values": [
      {"measurement": "CC50", "setting": "[1]; [4]", "value": "> 100", "unit": "µM"}
    ]},
    {"smiles": "CC(=O)O[C@@]12CO[C@@H]1C[C@H](O)[C@@]1(C)C(=O)[C@H](O)C3=C(C)[C@@H](OC(=O)[C@H](O)[C@@H](NC(=O)OC(C)(C)C)c4ccccc4)C[C@@](O)([C@@H](OC(=O)c4ccccc4)[C@H]21)C3(C)C", "note": "[Docetaxel, reference compound]", "values": [
      {"measurement": "CC50", "setting": "[1]; [4]", "value": 9.47, "unit": "µM"},
      {"measurement": "CC50", "setting": "[1]; [5]", "value": "9.4 ± 0.07", "unit": "µM"}
    ]},
    {"smiles": "CC(=O)Oc1ccc(-c2c(C)c3ccccc3oc2=O)cc1", "note": "[Compound 10, 4-(4-methyl-2-oxo-2H-chromen-3-yl)phenyl acetate]", "values": [
      {"measurement": "CC50", "setting": "[1]; [4]", "value": "> 100", "unit": "µM"}
    ]},
    {"smiles": "CC(=O)Oc1ccc(-c2cc3ccc(OC(C)=O)c(OC(C)=O)c3oc2=O)cc1", "note": "[Compound 6, 8-(acetyloxy)-3-[4-(acetyloxy)phenyl]-2-oxo-2H-chromen-7-yl acetate]", "values": [
      {"measurement": "CC50", "setting": "[1]; [4]", "value": 75.2, "unit": "µM"},
      {"measurement": "CC50", "setting": "[1]; [5]", "value": "75.9 ± 0.65", "unit": "µM"}
    ]},
    {"smiles": "CC(=O)Oc1ccc2cc(-c3ccc(S(C)(=O)=O)cc3)c(=O)oc2c1OC(C)=O", "note": "[Compound 7, 8-(acetyloxy)-3-(4-methanesulfonylphenyl)-2-oxo-2H-chromen-7-yl acetate]", "values": [
      {"measurement": "fold decrease in potency compared to docetaxel (CC50, A549)", "setting": "[1]; A549, 48 h, 7 vs docetaxel", "value": 2.5, "unit": "fold"},
      {"measurement": "CC50", "setting": "[1]; [5]", "value": "24.2 ± 0.7", "unit": "µM"},
      {"measurement": "MMP fluorescence intensity in comparison to untreated control (100%)", "setting": "A549 cells [2]; A549, 10 μM", "value": 96.4, "unit": "%"},
      {"measurement": "MMP fluorescence intensity in comparison to untreated control (100%)", "setting": "A549 cells [2]; A549, 25 μM", "value": 94.8, "unit": "%"},
      {"measurement": "MMP fluorescence intensity in comparison to untreated control (100%)", "setting": "A549 cells [2]; A549, 50 μM", "value": 93.4, "unit": "%"},
      {"measurement": "MMP fluorescence intensity in comparison to untreated control (100%)", "setting": "A549 cells [2]; A549, 75 μM", "value": 92.9, "unit": "%"},
      {"measurement": "MMP fluorescence intensity in comparison to untreated control (100%)", "setting": "A549 cells [2]; A549, 100 μM", "value": 81.7, "unit": "%"},
      {"measurement": "ROS fluorescence intensity in comparison to untreated control (100%)", "setting": "A549 cells [3]; A549, 10 μM", "value": 107.1, "unit": "%"},
      {"measurement": "ROS fluorescence intensity in comparison to untreated control (100%)", "setting": "A549 cells [3]; A549, 25 μM", "value": 129.0, "unit": "%"},
      {"measurement": "ROS fluorescence intensity in comparison to untreated control (100%)", "setting": "A549 cells [3]; A549, 50 μM", "value": 136.6, "unit": "%"},
      {"measurement": "ROS fluorescence intensity in comparison to untreated control (100%)", "setting": "A549 cells [3]; A549, 75 μM", "value": 146.0, "unit": "%"},
      {"measurement": "ROS fluorescence intensity in comparison to untreated control (100%)", "setting": "A549 cells [3]; A549, 100 μM", "value": 231.2, "unit": "%"}
    ]},
    {"smiles": "Cc1c(-c2ccc(S(C)(=O)=O)cc2)c(=O)oc2ccccc12", "note": "[Compound 11, 3-(4-methanesulfonylphenyl)-4-methyl-2H-chromen-2-one]", "values": [
      {"measurement": "CC50", "setting": "[1]; [4]", "value": "> 100", "unit": "µM"}
    ]}
  ]
}
